Measurements: paper PMC11845331, “Teicoplanin pharmacokinetics in critically ill patients on extracorporeal organ support: a retrospective analysis” (Intensive Care Medicine Experimental, 2025)

Tests used:
[1] = Adverse reactions to teicoplanin in critically ill patients on ECMO; format: in vivo, human; conditions: all 23 included patients on ECMO, i.v. teicoplanin
From the text: The primary outcome of this study was the proportion of patients with insufficient or toxic TCtrough during ECMO support. Secondary outcomes included the observed TCtrough and teicoplanin dosages over time during ECMO support and dependent on the presence of continuous renal replacement therapy (CRRT), as well as the occurrence of side effects (such as hemotoxicity, hepatotoxicity or skin changes) leading to discontinuation of teicoplanin treatment.

[2] = cited from earlier work
From the text: Recently, more attention has been drawn to antimicrobial serum levels and dosing in patients receiving ECMO treatment. While marked concentration variability during ECMO treatment has been observed for many common antimicrobials used in the ICU including meropenem, cefepime, ceftriaxone, piperacillin or vancomycin [14], data for teicoplanin are scarce so far.

[3] = Teicoplanin plasma trough levels (TCtrough) from therapeutic drug monitoring during ECMO support; format: in vivo, human
From the text: This single-center retrospective study included critically ill, adult (> 18 years old) patients hospitalized at the tertiary intensive care unit (ICU) of the University Hospital Zurich, Switzerland, an academic teaching hospital. The local ICU provides care for patients from all medical and surgical fields. All patients undergoing extracorporeal membrane oxygenation (ECMO) support and intravenous teicoplanin treatment were eligible for study inclusion from 1.1.2010 to 19.07.2023. Patients were included irrespective of the admitting diagnosis and independent of the ECMO configuration (veno-venous, veno-arterial or others with, e.g., multiple cannulation sites). Patients aged < 18 years were excluded. Other exclusion criteria were documented verbal or written refusal to participate in this study. Patients were also excluded if teicoplanin was not administered for any portion of the ECMO treatment period (e.g., if given only before or after the ECMO treatment period) or if no trough levels were obtained during ECMO support.
Data were collected with the use of two in-hospital electronic medical records databases, the KISIM (Cistec AG, Zurich, Switzerland) and the Patient Data Management System (PDMS) MetaVision (iMDsoft, Dusseldorf, Germany). Collected data included baseline demographic data (including age, gender and body mass index), comorbidities (including cardiovascular conditions, pulmonary diseases, renal insufficiency) and immunosuppression (including patients with prior organ transplantation), ICU admitting diagnoses, and the indication for teicoplanin treatment (empiric vs. targeted). Moreover, ICU treatment modalities and scores (e.g., organ support and scores such as the Sequential Organ Failure Assessment Score SOFA and the Simplified Acute Physiology Score SAPS II) and patient outcomes (including ICU length of stay and survival) were gathered. Teicoplanin trough levels and dosages over time were obtained from the medical records (see below).
In our hospital, intravenous teicoplanin is normally administered for empiric or targeted coverage of Gram-positive microorganisms. The standard loading dose is 400 mg infused at 0 h, 12 h and 24 h. Thereafter, 400 mg are administered every 24 h. Measurement of teicoplanin trough levels (TCtrough) is recommended prior to the fifth dose and this also applies to dose adjustments. In case of renal impairment, TCtrough levels are recommended to be measured prior to the second dose, in order to detect potential overdosing early. If the estimated glomerular filtration rate (eGFR) is subnormal, teicoplanin starting dosage is adjusted (eGFR 40–60 ml/min: 200 mg/24 h, eGFR < 40 ml/min: 100 mg/24 h).
In case the patient is undergoing continuous renal replacement therapy, 200–400 mg teicoplanin every 24 h are recommended. In general, TCtrough of 10–30 mg/l are targeted. TCtrough < 10 mg/l are considered insufficient, whereas TCtrough > 30 mg/l are considered toxic. In case TCtrough are not within the target ranges, dose adaptations can be prescribed by the clinicians in charge. In case a measured TCtrough is toxic (i.e., > 30 mg/l), no more teicoplanin is administered, however TCtrough are measured on a daily basis. […] After increasing the dose, subsequent teicoplanin levels are again measured prior to the fifth dose or prior to the second dose in case of renal impairment, respectively. […]

[4] = human, in vivo; cited from earlier work
Protocol: Chen et al. focused on the effect of applying high loading doses in 11 patients receiving veno-arterial ECMO treatment. In their study, four loading doses greater than 10 mg/kg were applied within the first 72 h. Before the application of the maintenance dose, the authors reported adequate therapeutic TCtrough for severe infections in more than 90% of patients. In our study, the loading dose of 400 mg was markedly lower, which presumably might have contributed to our observed low TCtrough in a significant proportion of patients particularly during the first days of ECMO su ...

TCtrough mean difference, ECMO alone vs ECMO and CRRT ([3]; 95% CI 6–13, p < 0.0001): 9 mg/L
Influence of ECMO circuit configuration (veno-venous vs. veno-arterial) on TCtrough over time ([3]; Fig. 3): did not have a significant influence
TCtrough in patients with ECMO and CRRT ([3]; critically ill adult ICU patients, i.v. teicoplanin, plasma trough level, ECMO plus continuous renal replacement therapy, median [IQR 5–16]): 9 mg/L
TCtrough in patients with ECMO treatment alone ([3]; critically ill adult ICU patients, i.v. teicoplanin, plasma trough level, ECMO without CRRT, median [IQR 12–24 mg/l]): 18 mg/L
TCtrough mean difference in relation to oxygenator changes (pre vs. post) ([3]; five cases with available data, 95% CI –12 to 15, p = 0.8108): 1.5 mg/L
Substance: Teicoplanin
Drug reactions or other adverse reactions to teicoplanin [1]: no drug reactions or other adverse reactions to teicoplanin were observed
Loss of teicoplanin within the ECMO circuit ([2]; ex vivo blood-primed ECMO circuits): significant loss of teicoplanin
Lowering of central volume of distribution with ECMO treatment ([2]; population pharmacokinetic model, 10 adult ECMO patients): 34%
Proportion of patients with adequate therapeutic TCtrough for severe infections before the maintenance dose [4]: more than 90%
